In ChEMBL document CHEMBL5236589, “Design and Structural Optimization of Orally Bioavailable SOS1 Inhibitors for the Treatment of KRAS-Driven Carcinoma” (J Med Chem, 2022):

Assays:
[1] = Inhibition of SOS1/KRAS G13D mutant protein-protein interaction in human DLD-1 cells assessed as ERK1/2 phosphorylation measured after 1 hr by homogeneous time-resolved fluorescence (HTRF) method; format: cell-based; conditions: DLD-1, 1 h
[2] = Cmax in ICR mouse at 20 mg/kg, po by LC-MS/MS analysis; format: ADME, organism-based; set-up: dose 20 mg/kg, route po; conditions: in vivo
[3] = Elimination rate constant in ICR mouse at 20 mg/kg, po by LC-MS/MS analysis; format: ADME, organism-based; conditions: in vivo; for k el: ICR; for Kel: po, 20 mg/kg
[4] = AUC in ICR mouse at 20 mg/kg, po by LC-MS/MS analysis; format: ADME, organism-based; set-up: dose 20 mg/kg, route po; conditions: in vivo
[5] = MRT in ICR mouse at 20 mg/kg, po by LC-MS/MS analysis; format: ADME, organism-based; conditions: in vivo
[6] = Half life in ICR mouse at 20 mg/kg, po by LC-MS/MS analysis; format: ADME, organism-based; conditions: in vivo; for half-life: ICR; for t1/2: po, 20 mg/kg
[7] = Tmax in ICR mouse at 20 mg/kg, po by LC-MS/MS analysis; format: ADME, organism-based; conditions: in vivo
[8] = target: SOS1-KRAS (Homo sapiens, UniProt Q07889); experiment: Inhibition of human recombinant SOS1 (residue 564-1049)/KRAS G12C mutant protein-protein interaction at incubated for 25 degC for 60 mins by homogeneous time-resolved fluorescence (HTRF) method
Chain of SOS1-KRAS (Q07889 whole entry, looked up, stated change not applied): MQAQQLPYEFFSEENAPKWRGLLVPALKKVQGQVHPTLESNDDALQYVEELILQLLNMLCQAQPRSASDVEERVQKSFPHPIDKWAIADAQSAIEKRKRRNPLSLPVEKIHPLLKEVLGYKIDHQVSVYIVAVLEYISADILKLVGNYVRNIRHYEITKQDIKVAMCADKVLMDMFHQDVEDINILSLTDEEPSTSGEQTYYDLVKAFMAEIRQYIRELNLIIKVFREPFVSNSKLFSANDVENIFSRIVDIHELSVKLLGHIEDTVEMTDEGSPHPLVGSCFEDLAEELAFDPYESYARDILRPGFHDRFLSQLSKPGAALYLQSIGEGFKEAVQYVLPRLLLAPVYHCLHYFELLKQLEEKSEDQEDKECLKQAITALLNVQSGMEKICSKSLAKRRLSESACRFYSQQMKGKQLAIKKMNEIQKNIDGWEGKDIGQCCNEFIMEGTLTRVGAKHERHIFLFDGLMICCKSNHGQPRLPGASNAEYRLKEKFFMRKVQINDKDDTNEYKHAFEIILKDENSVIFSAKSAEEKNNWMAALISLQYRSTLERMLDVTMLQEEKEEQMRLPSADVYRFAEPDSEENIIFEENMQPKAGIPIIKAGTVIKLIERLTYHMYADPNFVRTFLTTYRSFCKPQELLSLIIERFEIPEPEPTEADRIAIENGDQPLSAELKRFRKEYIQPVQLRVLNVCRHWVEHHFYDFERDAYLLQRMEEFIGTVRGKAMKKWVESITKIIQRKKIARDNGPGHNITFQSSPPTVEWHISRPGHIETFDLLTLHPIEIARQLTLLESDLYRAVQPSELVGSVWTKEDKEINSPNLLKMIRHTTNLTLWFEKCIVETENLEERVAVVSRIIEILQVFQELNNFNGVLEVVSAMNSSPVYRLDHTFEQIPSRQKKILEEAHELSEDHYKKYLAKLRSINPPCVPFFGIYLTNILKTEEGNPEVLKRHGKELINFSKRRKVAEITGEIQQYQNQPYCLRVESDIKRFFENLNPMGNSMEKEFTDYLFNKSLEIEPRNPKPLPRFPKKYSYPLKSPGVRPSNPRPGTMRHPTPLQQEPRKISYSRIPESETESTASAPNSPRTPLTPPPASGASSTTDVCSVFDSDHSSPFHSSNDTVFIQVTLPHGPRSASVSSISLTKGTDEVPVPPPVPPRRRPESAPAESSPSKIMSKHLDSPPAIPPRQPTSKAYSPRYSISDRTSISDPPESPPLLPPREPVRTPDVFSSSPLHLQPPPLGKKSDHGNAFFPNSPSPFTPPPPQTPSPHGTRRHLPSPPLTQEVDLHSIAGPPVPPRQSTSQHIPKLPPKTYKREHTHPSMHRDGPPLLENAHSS

Cc1nc(N[C@H](C)c2cccc(C(F)F)c2F)c2cc3c(cc2n1)OC[C@H]1CN(S(C)(=O)=O)CCN31
IC50 [1]: 79 nM

Cc1nc(N[C@H](C)c2cccc(C(F)F)c2F)c2cc3c(cc2n1)OC[C@H]1CN(C2COC2)CCN31
IC50 [1]: 96 nM

Cc1nc(N[C@H](C)c2cccc(C(F)F)c2F)c2cc3c(cc2n1)OC[C@H]1CN(C(=O)N(C)C)CCN31
Cmax [2]: 621 ng/mL | k el [3]: 2.5e-05 s⁻¹ | IC50 [1]: 2.9 nM | AUC [4]: 3980 ng·h/mL | MRT [5]: 4.2 h | half-life [6]: 12.3 h | Tmax [7]: 3 h

COC(=O)N1CCN2c3cc4c(N[C@H](C)c5cccc(C(F)F)c5F)nc(C)nc4cc3OC[C@H]2C1
IC50 [1]: 22 nM

Cc1nc(N[C@H](C)c2cccc(C(F)F)c2F)c2cc3c(cc2n1)OC[C@H]1CN(CC(=O)N(C)C)CCN31
IC50 [1]: 295 nM

Cc1nc(N[C@H](C)c2cc(N)cc(C(F)(F)F)c2)c2cc3c(cc2n1)OC[C@H]1CN(C2CCOCC2)CCN31
IC50 [1]: 48 nM | IC50 [8]: 18 nM

Cc1nc(N[C@H](C)c2cccc(C(F)F)c2F)c2cc3c(cc2n1)OC[C@H]1CN(C(=O)C2CC2)CCN31
IC50 [1]: 367 nM

Cc1nc(N[C@H](C)c2cccc(C(F)F)c2F)c2cc3c(cc2n1)OC[C@H]1CN(C(=O)c2ccn[nH]2)CCN31
IC50 [1]: 376 nM

Cc1nc(N[C@H](C)c2cc(N)cc(C(F)(F)F)c2)c2cc3c(cc2n1)OC[C@H]1COCCN31
IC50 [1]: 38 nM | IC50 [8]: 6 nM

Cc1nc(N[C@H](C)c2cccc(C(F)F)c2F)c2cc3c(cc2n1)OC[C@H]1CN(C)CCN31
IC50 [1]: 86 nM

Cc1nc(N[C@H](C)c2cccc(C(F)F)c2F)c2cc3c(cc2n1)OC[C@H]1CN(C(C)C)CCN31
IC50 [1]: 168 nM

Cc1nc(N[C@H](C)c2cccc(C(F)F)c2F)c2cc3c(cc2n1)OC[C@H]1CN(C(=O)[C@@H]2CCCN2C)CCN31
IC50 [1]: 104 nM

CC(=O)N1CCN2c3cc4c(N[C@H](C)c5cccc(C(F)F)c5F)nc(C)nc4cc3OCC2C1 (some centres undefined)
IC50 [1]: 19 nM | IC50 [8]: 8.8 nM

Cc1nc(N[C@H](C)c2cccc(C(F)F)c2F)c2cc3c(cc2n1)OC[C@H]1CN(C(=O)C(C)(C)C)CCN31
IC50 [1]: 25 nM

Cc1nc(N[C@H](C)c2cccc(C(F)F)c2F)c2cc3c(cc2n1)OC[C@H]1CN(C(=O)[C@@H]2C[C@@H]2F)CCN31
IC50 [1]: 22 nM

Cc1nc(N[C@H](C)c2cc(N)cc(C(F)(F)F)c2)c2cc3c(cc2n1)OC[C@H]1CN(C2COC2)CCN31
IC50 [1]: 45 nM | IC50 [8]: 15.6 nM

Cc1nc(N[C@H](C)c2cccc(C(F)F)c2F)c2cc3c(cc2n1)OC[C@H]1CN(C(=O)C2COC2)CCN31
Cmax [2]: 260 ng/mL | k el [3]: 5e-05 s⁻¹ | IC50 [1]: 25 nM | AUC [4]: 2010 ng·h/mL | MRT [5]: 4.58 h | half-life [6]: 3.73 h | Tmax [7]: 3 h

COCC(=O)N1CCN2c3cc4c(N[C@H](C)c5cccc(C(F)F)c5F)nc(C)nc4cc3OC[C@H]2C1
Cmax [2]: 180 ng/mL | k el [3]: 3.06e-05 s⁻¹ | IC50 [1]: 10 nM | AUC [4]: 860 ng·h/mL | MRT [5]: 3.43 h | half-life [6]: 5.86 h | Tmax [7]: 0.83 h

COCC1(C(=O)N2CCN3c4cc5c(N[C@H](C)c6cccc(C(F)F)c6F)nc(C)nc5cc4OC[C@H]3C2)CC1
Cmax [2]: 161 ng/mL | k el [3]: 8.33e-05 s⁻¹ | IC50 [1]: 0.9 nM | AUC [4]: 398 ng·h/mL | MRT [5]: 2.62 h | half-life [6]: 2.28 h | Tmax [7]: 0.25 h

Cc1nc(N[C@H](C)c2cccc(C(F)F)c2F)c2cc3c(cc2n1)OC[C@H]1CN(C(=O)c2ccnn2C)CCN31
IC50 [1]: 691 nM

Cc1nc(N[C@H](C)c2cccc(C(F)F)c2F)c2cc3c(cc2n1)OC[C@H]1CN(C(=O)C2C(C)(C)C2(C)C)CCN31
IC50 [1]: 9 nM

Cc1nc(N[C@H](C)c2cccc(C(F)F)c2F)c2cc3c(cc2n1)OC[C@H]1CN(C(=O)C2(C#N)CC2)CCN31
Cmax [2]: 600 ng/mL | k el [3]: 5e-05 s⁻¹ | IC50 [1]: 14 nM | AUC [4]: 4460 ng·h/mL | MRT [5]: 4.43 h | half-life [6]: 3.87 h | Tmax [7]: 1.33 h

CC(=O)N1CCN2c3cc4c(N[C@H](C)c5cccc(C(F)F)c5F)nc(C)nc4cc3OC[C@@H]2C1
IC50 [1]: 38 nM | IC50 [8]: 13.8 nM

Cc1nc(N[C@H](C)c2cccc(C(F)F)c2F)c2cc3c(cc2n1)OC[C@H]1CN(C(=O)C2CC2(F)F)CCN31 (some centres undefined)
IC50 [1]: 26 nM

CCNC(=O)N1CCN2c3cc4c(N[C@H](C)c5cccc(C(F)F)c5F)nc(C)nc4cc3OC[C@H]2C1
IC50 [1]: 32 nM

Cc1nc(N[C@H](C)c2cc(N)cc(C(F)(F)F)c2)c2cc3c(cc2n1)OCCO3
IC50 [1]: 690 nM | IC50 [8]: 904 nM

Cc1nc(N[C@H](C)c2cccc(C(F)F)c2F)c2cc3c(cc2n1)OC[C@H]1CN(C(=O)N2CCOCC2)CCN31
Cmax [2]: 356 ng/mL | k el [3]: 0.0001 s⁻¹ | IC50 [1]: 9.7 nM | AUC [4]: 872 ng·h/mL | MRT [5]: 2.14 h | half-life [6]: 1.78 h | Tmax [7]: 0.5 h

CC(=O)N1CCN2c3cc4c(N[C@H](C)c5cc(N)cc(C(F)(F)F)c5)nc(C)nc4cc3OC[C@@H]2C1
IC50 [1]: 48 nM | IC50 [8]: 12.8 nM

Cc1nc(N[C@H](C)c2cccc(C(F)F)c2F)c2cc3c(cc2n1)OC[C@H]1CN(C(=O)C2CCO2)CCN31 (some centres undefined)
Cmax [2]: 97.1 ng/mL | Kel [3]: 0.13 h⁻¹ | IC50 [1]: 16 nM | AUC [4]: 534 ng·h/mL | MRT [5]: 4.55 h | t1/2 [6]: 14.3 h | Tmax [7]: 5.67 h

Cc1nc(N[C@H](C)c2cccc(C(F)F)c2F)c2cc3c(cc2n1)OC[C@H]1CN(C(=O)C2CCN(C)CC2)CCN31
IC50 [1]: 98 nM

CC(=O)N1CCOc2cc3nc(C)nc(N[C@H](C)c4cc(N)cc(C(F)(F)F)c4)c3cc21
IC50 [1]: 780 nM | IC50 [8]: 122 nM

Cc1nc(N[C@H](C)c2cccc(C(F)F)c2F)c2cc3c(cc2n1)OC[C@H]1CN(C(=O)N2CCN(C)CC2)CCN31
IC50 [1]: 99 nM

Cc1nc(N[C@H](C)c2cccc(C(F)F)c2F)c2cc3c(cc2n1)OC[C@H]1CN(C(=O)[C@@H]2CCOC2)CCN31
Cmax [2]: 47 ng/mL | k el [3]: 8.33e-06 s⁻¹ | IC50 [1]: 21 nM | AUC [4]: 780 ng·h/mL | MRT [5]: 9.65 h | half-life [6]: 18 h | Tmax [7]: 8 h

Cc1nc(N[C@H](C)c2cccc(C(F)F)c2F)c2cc3c(cc2n1)OC[C@H]1CN(C2CCOCC2)CCN31
IC50 [1]: 57 nM

Cc1nc(N[C@H](C)c2cc(N)cc(C(F)(F)F)c2)c2cc3c(cc2n1)OC[C@H]1CN(C)CCN31
IC50 [1]: 11 nM | IC50 [8]: 7.3 nM

Cc1nc(N[C@H](C)c2cccc(C(F)F)c2F)c2cc3c(cc2n1)OC[C@H]1CN(c2ncc(F)cn2)CCN31
IC50 [1]: 99 nM

Cc1nc(N[C@H](C)c2cccc(C(F)F)c2F)c2cc3c(cc2n1)OC[C@H]1CN(C(=O)C2(F)CC2)CCN31
Cmax [2]: 582 ng/mL | k el [3]: 8.33e-05 s⁻¹ | IC50 [1]: 1.7 nM | AUC [4]: 2100 ng·h/mL | MRT [5]: 2.59 h | half-life [6]: 2.34 h | Tmax [7]: 1.5 h

COCCN1CCN2c3cc4c(N[C@H](C)c5cccc(C(F)F)c5F)nc(C)nc4cc3OC[C@H]2C1
IC50 [1]: 97 nM

Cc1nc(N[C@H](C)c2cccc(C(F)F)c2F)c2cc3c(cc2n1)OC[C@H]1CN(C(=O)C2CCOCC2)CCN31
Cmax [2]: 241 ng/mL | k el [3]: 9.44e-05 s⁻¹ | IC50 [1]: 18 nM | AUC [4]: 646 ng·h/mL | MRT [5]: 2.46 h | half-life [6]: 2.13 h | Tmax [7]: 0.91 h

CNC(=O)N1CCN2c3cc4c(N[C@H](C)c5cccc(C(F)F)c5F)nc(C)nc4cc3OC[C@H]2C1
Cmax [2]: 751 ng/mL | Kel [3]: 0.26 h⁻¹ | IC50 [1]: 15 nM | AUC [4]: 2830 ng·h/mL | MRT [5]: 5.62 h | t1/2 [6]: 14.5 h | Tmax [7]: 8 h

Cc1nc(N[C@H](C)c2cccc(C(F)F)c2F)c2cc3c(cc2n1)OC[C@H]1CN(C(=O)C2(C)CC2)CCN31
IC50 [1]: > 1000 nM

Cc1nc(N[C@H](C)c2cccc(C(F)F)c2F)c2cc3c(cc2n1)OC[C@H]1CN(C2CN(C)C2)CCN31
IC50 [1]: 166 nM

COCCC(=O)N1CCN2c3cc4c(N[C@H](C)c5cccc(C(F)F)c5F)nc(C)nc4cc3OC[C@H]2C1
Cmax [2]: 674 ng/mL | k el [3]: 5e-05 s⁻¹ | IC50 [1]: 9.5 nM | AUC [4]: 3340 ng·h/mL | MRT [5]: 3.45 h | half-life [6]: 3.85 h | Tmax [7]: 2.92 h
